Data from US20110294138A1, “METHODS FOR SIMULTANEOUSLY MEASURING THE IN VIVO METABOLISM OF TWO OR MORE ISOFORMS OF A BIOMOLECULE” (THE WASHINGTON UNIVERSITY, priority 2008, published 2011).

System: immortalized knock-in murine astrocytes expressing human ApoE4
Assay: Production (stable isotope labeling kinetics, SILT) of human ApoE4 in immortalized knock-in murine astrocytes
Format: cell-based
Conditions: 50% 13C6-leucine in media, media collected over 48 hours, n=3; calculated from initial slope and plateau TTR
Method: FIG. 5 presents the production of human ApoE4 in immortalized knock-in murine astrocytes. ApoE4 expressing astrocytes were grown to confluency. ^13C6-Leucine was added to the media at time t=0 bringing the total percent ^13C6-leucine to 50%. Media was collected over 48 hours. ApoE was captured using liposorb, reduced and alkylated, and digested with trypsin. ApoE4 specific peptides were analyzed by nano-LC MS/MS. The SILT method was used to determine the incorporation of ^13C6-leucine into ApoE (n=3, error bars SEM). The fractional synthetic rate (FSR) of ApoE4 was calculated using initial slope and plateau tracer to tracee ratio (TTR) of 8.5% per hour. […]
ApoE was isolated either by overnight incubation with anti-ApoE antibody (WUE4) coupled to CNBr-activated Sepharose beads, or incubation for 30 min (4° C.) with PHM-Liposorb™ (Calbiochem, San Diego, Calif.). […] After desalting using Nu-tip carbon tips (Glygen Corp., Columbia, Md.), the supernatant containing ApoE peptides was analyzed by nano-LC tandem MS (Thermo-Finnigan LTQ equipped with a New Objective nanoflow ESI source) as previously described (Bateman et al., 2006, Nature Medicine, 12:856-861). The samples were quantitated using the stable-isotope tandem labeled (SILT) mass spectroscopy method as described by Bateman et al. 2007 J Am Soc Mass Spectrum 18(6):[…]. […]

Substance: ApoE4: Human apolipoprotein E isoform ApoE4 (arg112, arg158), endogenous protein whose metabolism is measured
- fractional synthetic rate (FSR) of ApoE4: 8.5 % per hour
